Each structure is given as a SMILES string. “And” between values parts separate entries of the source, which are not always exact repeats. Equal entries are not always repeated.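 All cell lines were grown in 96-well plates and treated with compound for 48 hours. The concentration for 50% growth inhibition is given as GI50. The concentration for full growth arrest is given as TGI.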

Common to all, as to test: inhibition of tumour cell growth, NCI panel, 48 h
Assay [1] deals with SK-MEL-2 melanoma.
Assay [2] concerns OVCAR-8 ovarian.
Assay [3] has as its system NCI-H460 lung.
The subject of assay [4] is MDA-MB-435.
In assay [5] the test system is T-47D breast.
For assay [6], the system named is OVCAR-5 ovarian.
The test system of assay [7] is SR leukemia.
In assay [8] the test system is HCC-2998 colon.
In assay [9] the test system is OVCAR-3 ovarian.
Assay [10] deals with BT-549 breast.

In the case of `COCCn1c2c([n+](Cc3cnccn3)c1C)C(=O)c1ccccc1C2=O`, the GI50 in assay [1] was under 0.01 µM; in assay [2], under 0.01 µM; in [3], 0.0208 µM; in assay [4], under 0.01 µM; in assay [5], 0.0246 µM; in assay [6], 0.0308 µM. For the same compound, the GI50 in assay [7] was under 0.0108 µM; in assay [8], under 0.01 µM; in assay [9], under 0.01 µM; in assay [10], 0.0264 µM. The TGI in [1] is 0.0127 µM; in assay [2] it was under 0.01 µM; in assay [3] it was 0.112 µM; in assay [4] it was under 0.01 µM; in [5], 0.153 µM; in assay [6], 0.129 µM. Besides, the TGI in [7] is 6.85 µM; in assay [8], 0.0373 µM; in assay [9], under 0.01 µM; in assay [10], 0.0876 µM.

On to `Nc1nc(N)c2c(n1)CCC(S(=O)(=O)c1ccc3ccccc3c1)C2` (stereo not drawn), for which, in assay [1], the GI50 was 9.79 µM. For the same compound, the TGI in assay [1] is over 100 µM; in assay [2], over 100 µM; in assay [3], over 67 µM; in assay [4] it was over 100 µM; in [5] it was over 100 µM; in [6], over 100 µM. Further, the TGI in assay [7] is 17.8 µM; in [8], 26.7 µM; in assay [9] it was over 82.9 µM; in assay [10], over 100 µM.

As for `CC[C@@]1(O)C(=O)OCc2c1cc1n(c2=O)Cc2c-1nc1cc(F)c(C)c3c1c2[C@@H](NC(=O)CO)CC3`, the GI50 in assay [1] was 0.318 µM; in assay [2] it was 0.0132 µM; in assay [3] it was under 0.01 µM; in assay [4], 0.0612 µM; in assay [5] it was under 0.01 µM; in assay [6], 0.115 µM. In addition, the GI50 in assay [7] is under 0.01 µM; in [8] it was 0.163 µM; in [9], 0.0603 µM; in assay [10], under 0.0118 µM. Moreover, the TGI was 2.63 µM in [1]; over 100 µM in assay [2]; 1.27 µM in [3]; 3.05 µM in assay [4]; over 100 µM in [7]; 3.51 µM in assay [8]. In addition, the TGI was 1.65 µM in [9] and 0.73 µM in assay [10].

Turning to `c1ccc(CC(Nc2cccnc2)c2ccccc2)cc1` (stereo not drawn), the TGI in assay [1] was 36 µM; in assay [2], over 100 µM; in assay [3], 52.9 µM; in assay [4] it was 64.4 µM; in [5] it was over 100 µM; in assay [6] it was 98.8 µM. Further, the TGI in assay [7] stood at 50.9 µM; in assay [8], 39.9 µM; in assay [9] it was 34.3 µM; in assay [10], 65.6 µM.

Consider `COc1c(B(O)O)cccc1-c1nc2c(F)cc3n[nH]c(C)c3c2c2c1CCCC2`, for which the GI50 in assay [1] was 1.45 µM; in assay [2], 1.22 µM; in assay [3], 1.28 µM; in [4], 1.86 µM; in [5], 1.33 µM; in assay [6], 1.08 µM. Further, the GI50 in assay [7] was 0.964 µM; in assay [8], 2.45 µM; in assay [9] it was 1.48 µM; in [10], 0.238 µM. Besides, the TGI is 3.6 µM in assay [1]; over 50 µM in assay [2]; over 50 µM in [3]; over 50 µM in assay [4]; over 23.2 µM in assay [5]; over 50 µM in assay [6]. Further, the TGI in [7] was over 24.3 µM; in assay [8], 48.5 µM; in assay [9], over 50 µM; in assay [10], 3.14 µM.

With `NC1(C(=O)N[C@@H](CCO)c2ccc(Cl)cc2)CCN(c2ncnc3[nH]ccc23)CC1`, the GI50 in assay [1] was > 4.51 µM and 16.3 µM; in [2], > 4.3 µM and 42.5 µM; in assay [3], 0.679 µM and 1.74 µM; in [4], 2.34 µM and 4.94 µM; in assay [5], 0.167 µM and 0.439 µM; in assay [6] it was > 2.22 µM and 9.44 µM. Moreover, the GI50 is 2.24 µM and 5.95 µM in assay [7]; > 2.1 µM and 8.17 µM in assay [8]; > 2.43 µM and 28 µM in [9]; 0.366 µM and 0.624 µM in assay [10]. Also, the TGI in assay [1] is over 82.8 µM; in [2], over 100 µM; in [3] it was over 100 µM; in [4], over 100 µM; in [5] it was over 76.8 µM; in assay [6], over 100 µM. Further, the TGI in assay [7] was > 10 µM and 39.5 µM; in assay [8], over 100 µM; in [9] it was over 100 µM; in assay [10] it was > 5.01 µM and 13 µM.

Turning to `O=C(O)c1ccc(/C=N/N=C2c3ccccc3-c3ccccc32)cc1`, the TGI in [1] was 75.1 µM; in assay [2], over 100 µM; in [3], over 100 µM; in assay [4], over 100 µM; in assay [5], over 100 µM; in assay [6], over 100 µM. The results for the TGI in [7], in assay [9] and in [10] were over 100 µM, 67.4 µM and over 100 µM, respectively.

For `O=c1/c(=C\c2ccc(Br)cc2)sc2n1C(c1ccc(Br)cc1)C1=C(N=2)c2ccc3ccccc3c2OCC1` (stereo not drawn), the GI50 in [1], in assay [2], in assay [3], in [4], in assay [5] and in assay [6] was over 100 µM in each case. The GI50 in [7] was 35.4 µM; in [8], over 100 µM; in assay [9], over 100 µM; in [10] it was over 100 µM. The TGI in assay [1], in [2], in assay [3], in assay [4], in assay [5] and in [6] was over 100 µM each time. Also, the TGI in [7], in assay [8], in [9] and in assay [10] was over 100 µM in each case.

Turning to `O=C1OCC2=C1C(c1cccc(Cl)c1)c1cc3c(cc1N2CCO)CCC3` (stereo not drawn), the GI50 in [1] was 0.0323 µM; in [2], 0.0577 µM; in [3] it was 0.038 µM; in assay [4], 0.02 µM; in assay [5] it was 0.0414 µM; in [6], 0.143 µM. Further, the GI50 in assay [7] was 0.0609 µM; in [8], 0.0922 µM; in assay [9], 0.0253 µM; in assay [10] it was 0.166 µM. Also, the TGI in [1] was 0.441 µM; in assay [2], 2.98 µM; in assay [3], 4.12 µM; in assay [4] it was 0.0491 µM; in assay [5] it was 23.2 µM; in assay [6] it was 18.2 µM. The TGI in assay [7] came out at 21 µM; in assay [8], 2.93 µM; in assay [9], 0.0666 µM; in assay [10], 8.69 µM.

Source of the values: PubChem BioAssay (NCI).
